The text below walks through data of patent US20240025884A1 (Dong-A ST Co., Ltd., priority 2022, published 2024).

Each structure is given as a SMILES string.

The assay deals with GCN2 (Homo sapiens (Human), UniProt Q9P2K8). Description: GCN2 Biochemical Assay (TR-FRET, GFP-eIF2S1 substrate phosphorylation). To be noted: read-out: IC50 (GCN2 Inhibitory Activity). In short, it runs like this: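 TR-FRET readout (Ex 340, Em 490/520 nm) after 2–3 h with Tb-labelled phospho-eIF2S1 antibody in stop mix, following a 70 min room-temperature kinase step. Reaction: in-house GCN2, GFP-eIF2S1, ATP, tRNA in Tris pH 7.5 (2× stocks 1.6 nM, 50 nM, 0.2 mM); compounds tested at 10 concentrations, with a phospho-substrate artifact counter-plate.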
GCN2, sequence (Q9P2K8 whole entry): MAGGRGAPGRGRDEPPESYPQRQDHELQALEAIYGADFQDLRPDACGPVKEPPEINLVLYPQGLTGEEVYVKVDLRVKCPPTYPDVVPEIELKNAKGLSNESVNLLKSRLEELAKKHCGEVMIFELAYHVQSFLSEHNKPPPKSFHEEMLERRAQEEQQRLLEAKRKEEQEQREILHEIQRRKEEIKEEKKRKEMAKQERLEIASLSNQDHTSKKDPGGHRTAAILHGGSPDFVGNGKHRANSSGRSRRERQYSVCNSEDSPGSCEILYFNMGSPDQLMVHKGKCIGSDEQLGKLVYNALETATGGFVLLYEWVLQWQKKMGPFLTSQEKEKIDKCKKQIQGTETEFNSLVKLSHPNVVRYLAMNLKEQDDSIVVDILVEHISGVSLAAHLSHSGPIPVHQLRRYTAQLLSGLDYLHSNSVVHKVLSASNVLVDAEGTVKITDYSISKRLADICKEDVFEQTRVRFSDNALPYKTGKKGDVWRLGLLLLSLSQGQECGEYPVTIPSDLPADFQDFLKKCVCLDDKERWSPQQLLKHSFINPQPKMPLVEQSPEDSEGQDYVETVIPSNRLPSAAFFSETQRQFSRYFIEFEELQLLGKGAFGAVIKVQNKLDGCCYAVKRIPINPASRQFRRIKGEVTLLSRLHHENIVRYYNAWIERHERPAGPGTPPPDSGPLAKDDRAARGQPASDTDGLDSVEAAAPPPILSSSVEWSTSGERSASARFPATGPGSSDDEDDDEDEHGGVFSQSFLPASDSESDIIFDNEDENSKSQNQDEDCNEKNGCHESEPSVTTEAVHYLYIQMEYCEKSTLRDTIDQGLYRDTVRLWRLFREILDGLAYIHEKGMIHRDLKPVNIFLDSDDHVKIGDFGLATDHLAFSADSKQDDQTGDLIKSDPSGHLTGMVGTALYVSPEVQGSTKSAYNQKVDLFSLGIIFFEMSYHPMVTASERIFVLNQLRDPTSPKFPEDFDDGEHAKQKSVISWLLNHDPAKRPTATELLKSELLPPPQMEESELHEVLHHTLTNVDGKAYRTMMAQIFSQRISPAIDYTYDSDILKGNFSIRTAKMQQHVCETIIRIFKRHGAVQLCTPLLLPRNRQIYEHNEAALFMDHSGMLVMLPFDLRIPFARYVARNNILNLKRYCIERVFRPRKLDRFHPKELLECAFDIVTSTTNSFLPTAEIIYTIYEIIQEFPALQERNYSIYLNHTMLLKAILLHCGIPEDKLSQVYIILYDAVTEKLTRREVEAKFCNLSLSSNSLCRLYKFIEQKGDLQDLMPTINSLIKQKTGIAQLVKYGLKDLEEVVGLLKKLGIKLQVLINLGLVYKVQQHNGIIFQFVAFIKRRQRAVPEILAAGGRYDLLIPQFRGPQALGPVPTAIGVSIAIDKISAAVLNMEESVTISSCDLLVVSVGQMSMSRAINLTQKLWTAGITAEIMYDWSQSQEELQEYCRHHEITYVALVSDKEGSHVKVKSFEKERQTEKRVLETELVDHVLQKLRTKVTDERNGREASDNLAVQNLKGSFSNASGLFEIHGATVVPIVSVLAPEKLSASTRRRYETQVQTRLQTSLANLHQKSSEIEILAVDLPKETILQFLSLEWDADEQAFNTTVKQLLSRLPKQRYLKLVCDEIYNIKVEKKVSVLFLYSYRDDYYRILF
Consider `Cc1cnc(Nc2cc(C)n(C)n2)nc1-c1c[nH]c2c(N3Cc4cccc(-c5ccncc5)c4C3=O)cccc12` [Example 383, 2-(3-(2-((1,5-dimethyl-1H-pyrazol-3-yl)amino)-5-methylpyrimidin-4-yl)-1H-indol-7-yl)-7-(pyridin-4-yl)isoindolin-1-one], for which the IC50 was under 10 nM.

For the compound `Cc1cnc(Nc2cc(C)n(C)n2)nc1-c1c[nH]c2c(N3Cc4c(/C=C/C(=O)N(C)C)cccc4C3=O)cccc12` [Example 360, (E)-3-(2-(3-(2-((1,5-dimethyl-1H-pyrazol-3-yl)amino)-5-methylpyrimidin-4-yl)-1H-indol-7-yl)-1-oxoisoindolin-4-yl)-N,N-dimethylacrylamide], the IC50 is under 10 nM.

Regarding `Cc1cnc(Nc2cc(C)n(C)n2)nc1-c1c[nH]c2c(N3Cc4c(cccc4-c4ccnc(F)c4)C3=O)cccc12` [Example 404, 2-(3-(2-((1,5-dimethyl-1H-pyrazol-3-yl)amino)-5-methylpyrimidin-4-yl)-1H-indol-7-yl)-4-(2-fluoropyridin-4-yl)isoindolin-1-one], the IC50 was under 10 nM.

In the case of `Cc1cnc(Nc2cc(C)n(C)n2)nc1-c1c[nH]c2c(N3Cc4c(cccc4C4=CCOCC4)C3=O)cccc12` [Example 392, 4-(3,6-dihydro-2H-pyran-4-yl)-2-(3-(2-((1,5-dimethyl-1H-pyrazol-3-yl)amino)-5-methylpyrimidin-4-yl)-1H-indol-7-yl)isoindolin-1-one], the IC50 was under 10 nM.

As for `Cc1cnc(Nc2cc(C)n(C)n2)nc1-c1c[nH]c2c(NC(=O)CN3CC[C@H](Oc4nccc(C5=CCC(C)(C)CC5)n4)C3)cccc12` [Example 252, (S)-N-(3-(2-((1,5-dimethyl-1H-pyrazol-3-yl)amino)-5-methylpyrimidin-4-yl)-1H-indol-7-yl)-2-(3-((4-(4,4-dimethylcyclohex-1-en-1-yl)pyrimidin-2-yl)oxy)pyrrolidin-1-yl)acetamide], the IC50 lay in the range of 10 to 100 nM.

With `CNC(=O)c1cncc(O[C@H]2CCN(CC(=O)Nc3cccc4c(-c5nc(Nc6cc(C)n(C)n6)ncc5C)c[nH]c34)C2)n1` [Example 133, (S)-6-((1-(2-((3-(2-((1,5-dimethyl-1H-pyrazol-3-yl)amino)-5-methylpyrimidin-4-yl)-1H-indol-7-yl)amino)-2-oxoethyl)pyrrolidin-3-yl)oxy)-N-methylpyrazine-2-carboxamide], the concentration for half-maximal inhibition (IC50) is under 10 nM.

For `Cc1cnc(Nc2cc(C)n(C)n2)nc1-c1c[nH]c2c(N3Cc4c(cccc4-c4ccccc4O)C3=O)cccc12` [Example 441, 2-(3-(2-((1,5-dimethyl-1H-pyrazol-3-yl)amino)-5-methylpyrimidin-4-yl)-1H-indol-7-yl)-4-(2-hydroxyphenyl)isoindolin-1-one], the IC50 is 10 to 100 nM.

Consider `Cc1cnc(Nc2cc(C)n(C)n2)nc1-c1c[nH]c2c(NC(=O)CN3CC[C@H](Oc4cc(N5CC[C@H](O)C5)ncn4)C3)cccc12` [Example 161, N-(3-(2-((1,5-dimethyl-1H-pyrazol-3-yl)amino)-5-methylpyrimidin-4-yl)-1H-indol-7-yl)-2-((S)-3-((6-((S)-3-hydroxypyrrolidin-1-yl)pyrimidin-4-yl)oxy)pyrrolidin-1-yl)acetamide], for which the IC50 was under 10 nM.

Take `Cc1cnc(Nc2cc(C)n(C)n2)nc1-c1c[nH]c2c(N3Cc4c(cccc4-c4cc(N)ncn4)C3=O)cccc12` [Example 456, 4-(6-aminopyrimidin-4-yl)-2-(3-(2-((1,5-dimethyl-1H-pyrazol-3-yl)amino)-5-methylpyrimidin-4-yl)-1H-indol-7-yl)isoindolin-1-one]: the IC50 is under 10 nM.

On to `Cc1cnc(Nc2cc(C)n(C)n2)nc1-c1c[nH]c2c(NC(=O)CN3CC[C@H](Oc4cc(NCCCO)ncn4)C3)cccc12` [Example 146, (S)-N-(3-(2-((1,5-dimethyl-1H-pyrazol-3-yl)amino)-5-methylpyrimidin-4-yl)-1H-indol-7-yl)-2-(3-((6-((3-hydroxypropyl)amino)pyrimidin-4-yl)oxy)pyrrolidin-1-yl)acetamide], for which the IC50 is under 10 nM.

As a reminder, the IC50 is the concentration that inhibits the measured activity by half.
